Laboratory results from patent publication US20260250290A1 (BRISTOL-MYERS SQUIBB COMPANY, priority 2023, published 2026).
Counter-ions that a name gives are not always drawn.

Biological target: T1, SGK1 (Homo sapiens, UniProt O00141)
T1 sequence (O00141 1-431): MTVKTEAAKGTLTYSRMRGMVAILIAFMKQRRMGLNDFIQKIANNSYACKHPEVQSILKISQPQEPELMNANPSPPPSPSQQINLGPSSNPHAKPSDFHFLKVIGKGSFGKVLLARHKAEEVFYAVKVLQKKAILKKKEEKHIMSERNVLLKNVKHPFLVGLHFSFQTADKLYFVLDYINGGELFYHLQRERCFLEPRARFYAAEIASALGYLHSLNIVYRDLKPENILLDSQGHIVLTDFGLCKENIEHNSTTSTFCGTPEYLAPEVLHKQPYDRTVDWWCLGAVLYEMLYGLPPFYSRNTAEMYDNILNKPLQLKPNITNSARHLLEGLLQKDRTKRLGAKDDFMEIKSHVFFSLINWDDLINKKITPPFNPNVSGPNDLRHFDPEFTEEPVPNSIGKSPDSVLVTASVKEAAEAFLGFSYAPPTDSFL
Assay: SGK1 inhibition Assay B (Echo mass spectrometry of phosphorylated peptide product)
Format: biochemical
Settings: 60 min at room temperature
Description: 20 μl of 2 nM SGK1 were added in 20 mM Hepes+10 mM MgCl2+0015% Brij-35+4 mM DTT+0.05 mg/ml BSA and the reaction incubated for 60 min at room temperature. The enzymatic reaction was quenched by addition 10 μl of 1% Formic Acid+150 nM Internal Standard: FITC-(Ahx)KKRNRR(pS)VA^—OH (final concentration). The plates are spun down at 3700 RPM for 10 minutes to remove all precipitate. Samples were loaded on to the Sciex Echo Mass Spec attached to a Sciex 6500 equipped with ESI and was used to analyze the phosphorylated peptide product. MRM transition of product and internal standard were monitored at m/z 755 to 937.5 and m/z 757.7 to 941.3 respectively. Peak area of analyte was normalized with internal standard.
Dose response curves were generated to determine the concentration required for inhibiting 50% of the enzyme activity. Compounds were dissolved at 10 mM in dimethylsulfoxide (DMSO) and evaluated at eleven concentrations.

| SMILES | IC50 |
| --- | --- |
| CN1CCN(c2nccc(C(=O)N[C@@H]3CCCN(c4cc(-c5cc(F)c(-n6cnnn6)cc5F)n5ncnc(N)c45)C3)n2)CC1 [Example 853, (R)-N-(1-(4-amino-7-(2,5-difluoro-4-(1H-tetrazol-1-yl)phenyl)pyrrolo[2,1-f][1,2,4]triazin-5-yl)piperidin-3-y1)-2-(4-methylpiperazin-1-yl)pyrimidine-4-carboxamide] | 12 nM |
| CN1[C@@H]2CC[C@H]1C[C@H](Oc1cc(Cl)sc1C(=O)N[C@@H]1CCCN(c3c(F)c(C4=CCOC4)n4ncnc(N)c34)C1)C2 [Example 976, N—((R)-1-(4-amino-7-(2,5-dihydrofuran-3-yl)-6-fluoropyrrolo[2,1-f][1,2,4]triazin-5-yl)piperidin-3-yl)-5-chloro-3-(((1R,3s,5S)-8-methyl-8-azabicyclo[3.2.1]octan-3-yl)oxy)thiophene-2-carboxamide] | 1 nM |
| CC(C)N1CC2(CN(c3cccc(C(=O)N[C@@H]4CCCN(c5cc(-c6ccc(-n7cnnn7)c(F)c6)n6ncnc(N)c56)C4)n3)C2)C1 [Example 816, (R)-N-(1-(4-amino-7-(3-fluoro-4-(1H-tetrazol-1-yl)phenyl)pyrrolo[2,1-f][1,2,4]triazin-5-yl)piperidin-3-yl)-6-(6-isopropyl-2,6-diazaspiro[3.3]heptan-2-yl)picolinamide] | 6 nM |
| Cc1cc(O[C@@H]2C[C@H]3CC[C@@H](C2)N3C)c(C(=O)N[C@@H]2CCCN(c3cc(-c4ccc(-n5cc(CCC#N)nn5)c(F)c4)n4ncnc(N)c34)C2)s1 [Example 933, N—((R)-1-(4-Amino-7-(4-(4-(2-cyanoethyl)-1H-1,2,3-triazol-1-yl)-3-fluorophenyl)pyrrolo[2,1-f][1,2,4]triazin-5-yl)piperidin-3-yl)-5-methyl-3-(((1R,3s,5S)-8-methyl-8-azabicyclo[3.2.1]octan-3-yl)oxy)thiophene-2-carboxamide] | 0.8 nM |
| CCOC1=C(C(=O)N[C@@H]2CCCN(c3cc(C4=CCN(C(C)=O)C4)n4ncnc(N)c34)C2)CN(c2ccccc2)C1=O [Example 758, (R)-N-(1-(7-(1-acetyl-2,5-dihydro-1H-pyrrol-3-yl)-4-aminopyrrolo[2,1-f][1,2,4]triazin-5-yl)piperidin-3-yl)-4-ethoxy-5-oxo-1-phenyl-2,5-dihydro-1H-pyrrole-3-carboxamide, TFA salt] | 143 nM |
| COC(=O)N1CC=C(c2cc(N3CCC[C@@H](NC(=O)c4ccnc(N5CCN(C)CC5)n4)C3)c3c(N)ncnn23)C1 [Example 859, methyl (R)-3-(4-amino-5-(3-(2-(4-methylpiperazin-1-yl)pyrimidine-4-carboxamido)piperidin-1-yl)pyrrolo[2,1-f][1,2,4]triazin-7-yl)-2,5-dihydro-1H-pyrrole-1-carboxylate] | 5 nM |
| CC(=O)N1CC=C(c2cc(N3CCC[C@@H](NC(=O)c4nc(OC5CCNCC5)c(C)s4)C3)c3c(N)ncnn23)C1 [Example 957, (R)—N-(1-(7-(1-acetyl-2,5-dihydro-1H-pyrrol-3-yl)-4-aminopyrrolo[2,1-f][1,2,4]triazin-5-yl)piperidin-3-yl)-5-methyl-4-(piperidin-4-yloxy)thiazole-2-carboxamide] | 0.6 nM |
| CN1CCN(c2nccc(C(=O)N[C@@H]3CCCN(c4cc(-c5ccc(-n6cnnn6)c(CO)c5)n5ncnc(N)c45)C3)n2)CC1 [Example 852, (R)-N-(1-(4-amino-7-(3-(hydroxymethyl)-4-(1H-tetrazol-1-yl)phenyl)pyrrolo[2,1-f][1,2,4]triazin-5-yl)piperidin-3-yl)-2-(4-methylpiperazin-1-yl)pyrimidine-4-carboxamide, TFA salt] | 10 nM |
| CC(=O)N1CC=C(c2cc(N3CCC[C@@H](NC(=O)c4sc(Cl)cc4OC4CCN(C)C(C)(C)C4)C3)c3c(N)ncnn23)C1 (single isomer, unassigned) [Example 948] | 2 nM |
| CC(C)N1CC2(CN(c3cccc(C(=O)N[C@@H]4CCCN(c5cc(-c6cnc(-n7cnnn7)nc6)n6ncnc(N)c56)C4)n3)C2)C1 [Example 828, (R)-N-(1-(7-(2-(1H-tetrazol-1-yl)pyrimidin-5-yl)-4-aminopyrrolo[2,1-f][1,2,4]triazin-5-yl)piperidin-3-yl)-6-(6-isopropyl-2,6-diazaspiro[3.3]heptan-2-yl)picolinamide] | 25 nM |

Other lines, results leading:

| IC50 | SMILES |
| --- | --- |
| 2 nM | Cc1nc(OC2CC3CCC2CN3CCO)c(C(=O)N[C@@H]2CCCN(c3cc(-c4cnc(C#N)c(F)c4)n4ncnc(N)c34)C2)s1 (single isomer, unassigned) [Example 993] |
| 4 nM | Cc1nc(O[C@H]2CC[C@@H](N(C)C)CC2)c(C(=O)N[C@@H]2CCCN(c3cc(-c4ccc(=O)n(CC(F)(F)F)n4)n4ncnc(N)c34)C2)s1 [Example 973, N—((R)-1-(4-amino-7-(6-oxo-1-(2,2,2-trifluoroethyl)-1,6-dihydropyridazin-3-yl)pyrrolo[2,1-f][1,2,4]triazin-5-yl)piperidin-3-yl)-4-(((1s,4S)-4-(dimethylamino)cyclohexyl)oxy)-2-methylthiazole-5-carboxamide] |
| 1.2 nM | Cc1nccc(-c2cc(N3CCC[C@@H](NC(=O)c4sc(C)nc4OC4CCC(N5CCC5)CC4)C3)c3c(N)ncnn23)n1 (stereo partly drawn) [Example 1037, N—((R)-1-(4-amino-7-(2-methylpyrimidin-4-yl)pyrrolo[2,1-f][1,2,4]triazin-5-yl)piperidin-3-yl)-4-(((1S,4S)-4-(azetidin-1-yl)cyclohexyl)oxy)-2-methylthiazole-5-carboxamide] |
| 3.1 nM | Cc1nc(OC2CCC(N3CC(O)C3)CC2)c(C(=O)N[C@@H]2CCCN(c3cc(C#N)n4ncnc(N)c34)C2)s1 (stereo partly drawn) [Example 1048, (R)—N-(1-(4-amino-7-cyanopyrrolo[2,1-f][1,2,4]triazin-5-yl)piperidin-3-yl)-4-((4-(3-hydroxyazetidin-1-yl)cyclohexyl)oxy)-2-methylthiazole-5-carboxamide] |
| 0.8 nM | Cc1nccc(-c2cc(N3CCC[C@@H](NC(=O)c4sc(C)nc4O[C@H]4CC[C@@H](N(C)C)CC4)C3)c3c(N)ncnn23)n1 [Example 1035, N—((R)-1-(4-amino-7-(2-methylpyrimidin-4-yl)pyrrolo[2,1-f][1,2,4]triazin-5-yl)piperidin-3-yl)-4-(((1S,4S)-4-(dimethylamino)cyclohexyl)oxy)-2-methylthiazole-5-carboxamide] |
| 0.8 nM | CC1=C(c2cc(N3CCCC(NC(=O)c4sc(C)nc4OC4CCC(N5CCC5)CC4)C3)c3c(N)ncnn23)COC1=O [Example 1006, (R)-N-(1-(4-amino-7-(4-methyl-5-oxo-2,5-dihydrofuran-3-yl)pyrrolo[2,1-f][1,2,4]triazin-5-y1)piperidin-3-y1)-4-((4-(azetidin-1-yl)cyclohexyl)oxy)-2-methylthiazole-5-carboxamide] |
| 2.2 nM | CCNC1CCC(Oc2nc(C)sc2C(=O)N[C@@H]2CCCN(c3cc(C4=C(C)C(=O)OC4)n4ncnc(N)c34)C2)CC1 (stereo partly drawn) [Example 1011, (R)—N-(1-(4-amino-7-(4-methyl-5-oxo-2,5-dihydrofuran-3-yl)pyrrolo[2,1-f][1,2,4]triazin-5-yl)piperidin-3-yl)-4-((4-(ethylamino)cyclohexyl)oxy)-2-methylthiazole-5-carboxamide] |
| 4 nM | CCN1CCC(Oc2nc(C)sc2C(=O)N[C@@H]2CCCN(c3cc(C4=CCN(C(=O)C5(C#N)CC5)C4)n4ncnc(N)c34)C2)CC1(C)C (stereo partly drawn) [Example 985, N—((R)-1-(4-Amino-7-(1-(1-cyanocyclopropane-1-carbonyl)-2,5-dihydro-1H-pyrrol-3-yl)pyrrolo[2,1-f][1,2,4]triazin-5-yl)piperidin-3-yl)-4-((1-ethyl-2,2-dimethylpiperidin-4-yl)oxy)-2-methylthiazole-5-carboxamide] |
| 3 nM | CNC(=O)c1ccc(-c2cc(N3CCC[C@@H](NC(=O)c4sc(C)nc4O[C@H]4CC[C@@H](N(C)C)CC4)C3)c3c(N)ncnn23)cc1F [Example 932, N—((R)-1-(4-amino-7-(3-fluoro-4-(methylcarbamoyl)phenyl)pyrrolo[2,1-f][1,2,4]triazin-5-yl)piperidin-3-yl)-4-(((1s,4S)-4-(dimethylamino)cyclohexyl)oxy)-2-methylthiazole-5-carboxamide] |
| 46 nM | CCN1C2CCC1CC(Oc1nc(C)sc1C(=O)NC1CCCN(c3cc(-c4ccc(C#N)nc4)n4ncnc(N)c34)C1)C2 [Example 964, N-((R)-1-(4-amino-7-(6-cyanopyridin-3-yl)pyrrolo[2,1-f][1,2,4]triazin-5-y1)piperidin-3-y1)-4-(((1R,3s,5S)-8-ethyl-8-azabicyclo[3.2.]]octan-3-y])oxy)-2-methylthiazole-5-carboxamide] |
| 0.5 nM | COc1nc(-c2cc(N3CCC[C@@H](NC(=O)c4sc(C)nc4OC4CCC(N5CCC5)CC4)C3)c3c(N)ncnn23)ccc1C(N)=O (stereo partly drawn) [Example 1045, (R)—N-(1-(4-amino-7-(5-carbamoyl-6-methoxypyridin-2-yl)pyrrolo[2,1-f][1,2,4]triazin-5-yl)piperidin-3-yl)-4-((4-(azetidin-1-yl)cyclohexyl)oxy)-2-methylthiazole-5-carboxamide] |
| 12 nM | CCN1CCC(Oc2nc(C)sc2C(=O)N[C@@H]2CCCN(c3cc(C4=CCN(C(C)=O)C4)n4ncnc(N)c34)C2)CC1(C)C (single isomer, unassigned) [Example 946] |
| 2.8 nM | COc1nc(-c2cc(N3CCC[C@@H](NC(=O)c4sc(C)nc4OC4CCC(N5CCC[C@H]5C)CC4)C3)c3c(N)ncnn23)ccc1C(N)=O (stereo partly drawn) [Example 1044, N—((R)-1-(4-amino-7-(5-carbamoyl-6-methoxypyridin-2-yl)pyrrolo[2,1-f][1,2,4]triazin-5-yl)piperidin-3-yl)-2-methyl-4-((4-((R)-2-methylpyrrolidin-1-yl)cyclohexyl)oxy)thiazole-5-carboxamide] |
